Test results reported in article PMC2193201 (The Journal of Experimental Medicine, 2000).
pEC50: −log10 of the molar value. Values belong to the molecule of their own block, whether it stands above or below them. Where a SMILES comes first, the peptide text is derived from it.

Legend:
aminopeptidase M = details: pig, 37°C, up to 10 min
B*3909 = B*3909 (Homo sapiens, UniProt P01889, A182T/A93T/A95T/C349S/D138N/D201E/E176V/E187T/E204Q/K202T/Q94N/R155S/R180L/S121R/Y123S/Y140F/Y91C); test: cell-based
20S proteasome = test: purified 20S proteasome; details: human, 37°C, up to 24 h
[1] = molecular target: T1, aminopeptidase M from pig kidney (Sus scrofa, UniProt P15145)
T1 sequence (P15145 whole entry, looked up): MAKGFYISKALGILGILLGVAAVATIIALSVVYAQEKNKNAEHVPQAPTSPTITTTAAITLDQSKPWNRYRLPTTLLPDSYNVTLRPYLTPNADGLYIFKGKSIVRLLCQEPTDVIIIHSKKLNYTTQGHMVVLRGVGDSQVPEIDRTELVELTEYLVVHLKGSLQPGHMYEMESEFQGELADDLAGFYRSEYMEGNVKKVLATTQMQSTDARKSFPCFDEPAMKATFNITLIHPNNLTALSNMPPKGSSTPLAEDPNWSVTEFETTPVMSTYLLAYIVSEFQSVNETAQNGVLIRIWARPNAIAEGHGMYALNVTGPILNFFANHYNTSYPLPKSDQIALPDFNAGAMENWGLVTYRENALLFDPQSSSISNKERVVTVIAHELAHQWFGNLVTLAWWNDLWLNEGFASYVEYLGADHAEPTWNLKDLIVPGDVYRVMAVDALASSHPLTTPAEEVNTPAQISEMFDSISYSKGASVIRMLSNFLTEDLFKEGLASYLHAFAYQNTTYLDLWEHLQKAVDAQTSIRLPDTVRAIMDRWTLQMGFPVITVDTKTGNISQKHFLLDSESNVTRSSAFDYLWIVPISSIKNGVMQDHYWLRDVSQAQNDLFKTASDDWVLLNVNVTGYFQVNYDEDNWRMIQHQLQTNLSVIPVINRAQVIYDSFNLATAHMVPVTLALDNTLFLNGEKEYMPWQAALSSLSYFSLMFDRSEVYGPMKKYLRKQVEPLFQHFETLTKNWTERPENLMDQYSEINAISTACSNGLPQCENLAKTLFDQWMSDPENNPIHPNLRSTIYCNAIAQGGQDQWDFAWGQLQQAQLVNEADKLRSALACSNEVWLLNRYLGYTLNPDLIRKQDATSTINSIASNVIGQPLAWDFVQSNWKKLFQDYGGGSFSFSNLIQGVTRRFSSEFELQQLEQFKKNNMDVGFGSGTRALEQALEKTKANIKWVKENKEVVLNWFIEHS

not cleaved (aminopeptidase M): signals remained strongly significant
Molecule: NAc-SHVAVENAL

Molecule: CC(C)C[C@H](NC(=O)[C@H](C)NC(=O)[C@@H](NC(=O)[C@@H](NC(=O)CNC(=O)[C@@H]1CCCN1C(=O)[C@H](CCCNC(=N)N)NC(=O)[C@@H](N)Cc1ccc(O)cc1)[C@@H](C)O)C(C)C)C(=O)O [YRPGTVAL] (H-YRPGTVAL-OH)
pEC50 (B*3909): 4.92

cleaved bond (20S proteasome): L9-G10, major
Molecule: NAc-SHVAVENALGLDQQFAGLDLNSSDNQSGGS

Molecule: CC(C)C[C@H](NC(=O)[C@H](Cc1ccc(O)cc1)NC(=O)[C@H](Cc1ccccc1)NC(=O)[C@H](CCC(=O)O)NC(=O)[C@@H](NC(=O)[C@H](CCC(=O)O)NC(=O)[C@H](CC(=O)O)NC(=O)[C@H](CCCNC(=N)N)NC(=O)[C@H](C)N)[C@@H](C)O)C(=O)O (H-ARDETEFYL-OH)
pEC50 (B*3909): 5.30

Molecule: THGPPVQL
MALDI-TOF MS peak signal after digestion with aminopeptidase M [1]: reduced almost to background levels
